Experiments:
[1] = system: Lewis lung carcinoma (LLC); assay: Syngeneic Lewis lung carcinoma model: tumor growth after i.t. Ad-RTS vectors with oral AL; assay type: in vivo, mice; settings: oral AL alone in feed at 1000 ppm (~225 mg/kg/day)
From the text: Current cancer immunotherapies have provided limited success in the clinic and innovative strategies are required to further enhance the effectiveness of an anti-tumor immune response. This study assessed anti-tumor activity utilizing intratumoral (i.t.) administration of adenovirus (Ad) with the novel Rheoswitch Therapeutic System® (RTS®), an inducible promoter system, for regulated expression of murine IL-12 or IFNa. Oral administration of a small molecule activator ligand (AL), INXN-1001, regulates the expression of IL-12 in Ad-RTS-mIL-12 and IFNa in Ad-RTS-mIFNa. The regulated expression and therapeutic benefit of IL-12 and IFNa from i.t. administered Ad-RTS-mIL-12 and Ad-RTS-mIFNa, either alone or in combination, was examined in syngeneic Lewis lung carcinoma (LLC) and syngeneic mammary carcinoma (4T1) models.
In contrast, i.t. injection with 10^10 vp Ad-RTS-mIL-12 or Ad-RTS-mIFNa and daily oral AL led to significant tumor growth inhibition by day 25 (72 and 71%, respectively; p<0.05). […] Future studies will investigate the mechanism by which both IL-12 and IFNα exert their anti-tumor effect in the above tumor models.
LLC and 4T1 cells were transiently transduced with Ad-RTS-murine IL12 or Ad-RTS-murine IFNa at a MOI of 100. […] Supernatants were collected at 48 h and cytokine levels assessed by ELISA. n=3, mean±s.d. […]

murine melanoma, B16F0 = assay: Bilateral B16F0 melanoma model: tumor volume after intratumoral Ad-RTS-mIL12; assay type: in vivo, C57BL/6 mice; settings: day 21 post cell inoculation; activator ligand chow 1000 mg/kg alone, no vector
From the text: We investigated if the treatment of a local tumor with Ad-RTS-mIL12 (resulting in local tumor growth regression) would also lead to anti-tumor activity in the distant tumor. Toward this goal, we developed melanoma tumors on both flank regions of immunocompetent mice (C57BL/6) and treated the tumor on the right flank with Ad-RTS-mIL12 in the presence of activator ligand.
Six- to eight-week-old female C57B1/6 mice were purchased from Harlan (USA). Animal care and experimental procedures were performed according to Intrexon's Institutional Animal Care and Use Committee guidelines.
The murine melanoma (B16F0) cells were purchased from ATCC (Manassas, Va.). B16F0 cells were grown in Dulbecco's modified Eagle's medium (ATCC, Manassas, Va.), The DMEM was supplemented with heat-inactivated fetal calf serum (FCS) 10% v/v, 2-mM L-glutamine (Atlanta Biologicals, Inc, Lawrenceville, Ga.), 100 IU/ml […], and 100 μg/ml streptomycin. The cells were grown at 37° C. in 5% CO2. All cell lines were routinely tested and found to be free of mycoplasma. […]
Vector was administered intratumorally on Day 12 and Day 19 post tumor cell inoculation. Tumor size and body weight of each mouse were monitored three times a week until the end of the study. […]
The tumor volumes were calculated using the formula, L×W^2/2. […]

[2] = Plasma HuEPO expression as a function of activator ligand dose in chow after IM AAV-HuEPO (0034A); assay type: in vivo
Experimental: Animals were anesthetized, their quadriceps were visualized and the injection site sterilized. The mice were injected with vector using a 0.5 ml insulin syringe and a 29.5 gauge needle. Each animal was injected with total of 10^11 virus genomes in a 100 μl volume. After the procedure, the animals were placed in their cage and observed for normal ambulation.
Plasma samples were assayed for the presence of human erythropoietin using Enzyme Linked Immunosorbent Assay (ELISA) (StemCell Technologies, #01630).
Animals were bled for baseline HCT levels, followed by IM administration of 10^11 AAV-HuEPO viral genomes per animal (0034A). Animals received activator ligand-containing chow, with activator ligand concentrations 1000 mg/kg (18-1000), 250 mg/kg (18-250), 100 mg/kg (18-100), 50 mg/kg (18-50), or 0 mg/kg (18-0) starting on the day of AAV administration. Control animals received either vector administration and normal chow (no activator ligand, 18-0), or they received vehicle-alone IM administration (saline) with (18-1000) or without (18-0) activator ligand. HCT and HuEPO expression levels were measured in all groups every 7 days.

| SMILES | inhibition of tumor growth compared to control, untreated tumors [1] | average tumor volume, right flank tumor (murine melanoma, B16F0) | plasma HuEPO expression ([2]; ligand chow 50 mg/kg (18-50), 14 and 21 days, 0034A IM) | plasma HuEPO expression ([2]; ligand chow 50 mg/kg (18-50), 7 days, 0034A 10^11 viral genomes IM, limit of sensitivity of the assay) | plasma HuEPO expression ([2]; ligand chow 100 mg/kg (18-100), 7 days, 0034A IM) |
| --- | --- | --- | --- | --- | --- |
| CCC[C@@H](N(NC(=O)c1cccc(OC)c1CC)C(=O)c1cc(C)cc(C)c1)C(C)(C)C [AL] | did not result in significant inhibition of tumor growth | – | – | – | – |
| CCC[C@@H](N(NC(=O)c1cccc(OC)c1CC)C(=O)c1cc(C)cc(C)c1)C(C)(C)C [activator ligand, (R)-3,5-Dimethyl-benzoic acid N-(1-tert-butyl-butyl)-N′-(2-ethyl-3-methoxy-benzoyl)-hydrazide] | – | 924±80 mm^3 | detectable | ≤ 8 mU/ml | lower HuEPO expression |
